# From patent publication US5696113A, “Antipsychotic agents, compositions and method of use” (Hoechst Marion Roussel, Inc., priority 1996, dated 1997)
# Structures can show the parent of a compound that is named as a salt. Where two headings read alike, the source gives them in different places.
# What was measured:
# [1] = test system: apomorphine climbing; assay: Climbing Mouse Assay (apomorphine-induced climbing); format: in vivo, mice (CK-1 male); details: ip, read-out: CLIMBING MOUSE ASSAY (ED50 mg/kg, ip)
# Procedure: Antipsychotic activity is determined in the climbing mice assay by a method similar to those described by P. Protais, et al, Psychopharmacol.
# Subject […] male mice (23-27 grams) are group-housed under standard laboratory conditions. The mice are individually placed in wire mesh stick cages (4"×10") and are allowed one hour for adaption and exploration of the new environment.
# For evaluation of climbing, 3 readings are taken at 10, 20, and 30 minutes after apomorphine administration according to the following scale:
# Mice consistently climbing before the injection of apomorphine are discarded.
# With full-developed apomorphine climbing, the animals are hanging on to the cage walls, rather motionless, over long periods of time. By contrast, climbs due to mere motor stimulation usually only last a few seconds.
# The climbing scores are individually totaled (maximal score: 6 per mouse over 3 readings) and the total score of the control group (vehicle intraperitoneally, apomorphine subcutaneously) is set to 100%.
# [2] = test system: postsynaptic dopamine receptors; assay: Apomorphine stereotypy inhibition in rats (APO-S); format: in vivo, male Wistar rats; details: ip, apomorphine 1.5 mg/kg s.c.
# Procedure: APOMORPHINE STEREOTYPY INHIBITION IN RATS
# For a primary screen, a group size of six is used. Drug is administered one hour prior to scoring and the animals are placed in individual clear plastic cages (24×14×13 cm). The control group receives vehicle. Apomorphine is prepared at a concentration of 15 mg/10 ml in a […] ascorbic acid stock solution prepared with 30 mg of ascorbic acid in 100 ml of 1% saline to increase the stability of the apomorphine while in solution. […] Stereotypic behavior is noted 10 minutes later. […] Stereotypic behavior is defined as sniffing, licking or chewing behavior which occurs in a repetitive manner and is continuous for a 10-second period in the presence of white noise. The animal is considered protected if this behavior is interrupted. The percent effectiveness of a drug is determined by the number of animals protected in each group.
# A dose-response is determined in the same manner as a primary screen except that a group size of 10 is used and the animals are dosed in a randomized manner. One group receives vehicle. ED50 values for inhibition of stereotypy are calculated by means of Litchfield and Wilcoxon Analysis.
# [3] = test system: dopamine neurons, ventral tegmental area (A10); assay: Chronic single-unit dopamine neuron sampling, A10 region; format: in vivo, male Wistar rats; details: ip, once a day for 21 days, vs vehicle; dose 20 mg/kg for the hydrobromide compound
# Procedure: Dopamine Neuron Sampling.
# Compounds were prepared as percent base.
# [4] = test system: dopamine neurons, substantia nigra (A9); assay: Chronic single-unit dopamine neuron sampling, A9 region; details: for % Change in A9 region (dopamine neuron sampling): ip, once a day for 21 days, vs vehicle, dose 20 mg/kg for the hydrobromide compound
# Procedure: Dopamine Neuron Sampling. Male Wistar rats (280-360 grams) were used in this procedure. They were housed for at least 48 hours in a climate-controlled vivarium with food and water continuously available. Each rat was initially anesthetized with chloral hydrate (400 mg/kg ip) and maintained with additional injections as needed throughout the experiment. The animal was mounted in a stereotaxic apparatus (Kopf, model 900). The cranium was exposed, cleaned of connective tissue and dried. The skull overlying both the substantia nigra [A9:anterior (A) 3000-3400 microns, lateral (L) 1800-2400 microns from lambda)] and the ventral tegmental area (A10: A3000-3400 microns, L 400-1000 microns from lambda)^47 was removed. Using the dura as a point of reference, a micropipette driven by a hydraulic microdrive was lowered through the opening in the skull at vertical 6000-8500 microns. Spontaneously firing dopamine neurons within both the substantia nigra and the ventral tegmental areas were counted by lowering the electrode into twelve separate tracks (each track separated from the other by 200 microns) in each region. The sequence of the tracks was kept constant, forming a block of tissue which could be repoducibly located from animal to animal.
# Extracellular neuronal signals were sampled using a single barrel micropipette approximately one micron at its tip, and filled with 2M NaCl saturated with 1% pontamine sky blue dye. The in vitro impedance of this piper (measured with a Winston Electronics Co., BL-1000 Micro Electrode Tester) was between 5 and 10 megaohms. […] Only cells whose electrophysiological characteristics matched those previously established for midbrain dopamine neurons were counted.
# At the end of each experiment, the location of the last recorded track tip was marked by passing 25 microampere cathodal current through the recording micropipette barrel for 15 minutes in order to deposit a spot of dye. The rat was sacrificed; the brain was then removed, dissected and frozen on a bed of dry ice. Frozen serial sections (20 microns in width) were cut, mounted, and stained with cresyl violet and examined using a light microscope.
# Animals pretreated with vehicle prior to neuronal sampling served as controls. Compounds were prepared as percent base. Each compound was suspended in distilled water and one drop of Tween 80, and kept constantly agitated during dosing. All compounds were delivered at a dodge volume of 1 mg/kg by the intraperitoneal route. For animals used in the chronic single-unit, dopamine neuron sampling assay, the compounds were administered once a day for 21 days, and dopamine neuron sampling was begun two hours after the last dose on the 21st day. […]
# [5] = molecular target: T1, D2-Dopaminergic Site (striatal membranes) (Rattus norvegicus, UniProt P61169); assay: 3H-Spiroperidol binding to striatal membranes (D2-dopaminergic site); parameters: species or system rats
# T1 construct: from tissue; host or cells: rat striatum (membranes)
# T1 sequence (P61169 whole entry): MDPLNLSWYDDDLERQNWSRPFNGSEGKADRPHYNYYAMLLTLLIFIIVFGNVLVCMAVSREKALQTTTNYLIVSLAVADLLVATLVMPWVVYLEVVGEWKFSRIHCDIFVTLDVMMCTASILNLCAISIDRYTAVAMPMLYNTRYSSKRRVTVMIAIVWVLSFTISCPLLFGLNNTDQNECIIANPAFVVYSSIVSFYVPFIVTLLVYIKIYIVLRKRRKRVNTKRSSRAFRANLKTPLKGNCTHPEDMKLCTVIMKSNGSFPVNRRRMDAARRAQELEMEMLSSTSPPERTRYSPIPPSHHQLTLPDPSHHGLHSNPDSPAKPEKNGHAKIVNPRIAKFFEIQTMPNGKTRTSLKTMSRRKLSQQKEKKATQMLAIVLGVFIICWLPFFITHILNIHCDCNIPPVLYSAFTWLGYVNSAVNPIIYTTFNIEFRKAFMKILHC
# Procedure: (§1) D2 /5T-HT2 BINDING ASSAYS
# ^3 H-Spiroperidol Binding to Striatal Membranes (D2 -Dopaminergic Site) in Rats
# Striatal membranes were incubated with ^3 H-spiroperidol (0.4 nM) and various concentrations of test drug at 37° C. for 10 minutes in 1 ml of 0.05 M Tris-HCl buffer, pH 7.7 containing 120 mM NaCl, 5 mM KCl, 2 mM CaCl2, and 1 mM MgCl2. Nonspecific binding was determined in the presence of 2μM(+)-butaclamol. Bound ligand was separated by rapid filtration through Whatman GF/B filters.
# [6] = molecular target: T2, 5HT2 Site (cerebral cortical membranes) (Rattus norvegicus, UniProt P14842); assay: 3H-Spiroperidol binding to cerebral cortical membranes (5HT2 site); parameters: species or system rats; details: 3H-spiroperidol 1.5 nM, 37° C., 10 min, pH 7.7
# T2 construct: from tissue; host or cells: rat cerebral cortex (membranes)
# T2 sequence (P14842 whole entry): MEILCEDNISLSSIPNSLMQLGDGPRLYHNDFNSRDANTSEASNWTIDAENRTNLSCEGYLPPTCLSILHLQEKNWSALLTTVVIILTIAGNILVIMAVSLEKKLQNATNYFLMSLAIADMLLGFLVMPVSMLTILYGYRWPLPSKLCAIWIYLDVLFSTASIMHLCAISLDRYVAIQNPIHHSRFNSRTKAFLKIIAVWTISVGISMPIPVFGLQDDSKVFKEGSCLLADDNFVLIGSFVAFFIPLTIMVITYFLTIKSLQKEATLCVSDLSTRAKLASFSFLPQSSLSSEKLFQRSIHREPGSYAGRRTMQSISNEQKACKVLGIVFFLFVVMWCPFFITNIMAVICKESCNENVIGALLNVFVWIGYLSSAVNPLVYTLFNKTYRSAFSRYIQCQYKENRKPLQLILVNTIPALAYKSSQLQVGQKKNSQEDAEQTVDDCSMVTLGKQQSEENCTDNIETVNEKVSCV
# Procedure: as §1
# ^3 H-Spiroperidol Binding to Cerebral Cortical membranes (5HT2 Site) in Rats
# Nonspecific binding was determined in the presence of 5 μM methysergide. The incubation was terminated by rapid filtration through Whatman GF/B filters.
# [7] = test system: dopamine neurons, substantia nigra (A9); details: repeated administration; background statement; cited from earlier work
# [8] = apomorphine 1.5 mg/kg s.c., linear regression
compound,measurement,setting,value
CN1CCN(C2=Nc3cc(Cl)ccc3Nc3ccccc32)CC1 [Clozapine],ED50,[1],8.1 mg/kg
same,ED50,"[2]; Rattus norvegicus, Litchfield and Wilcoxon",> 40 mg/kg
same,% Change in A10 region (dopamine neuron sampling),[3],-79%
same,% Change in A9 region (dopamine neuron sampling),[4],+37%
same,number of DA neurons in the A9 area (EPS propensity),[4]; result in words,do not cause a decrease in the number of DA neurons in the A9 area
"COc1ccc2c(N3CCN(CCCC(=O)c4ccc(F)cc4)CC3)noc2c1 [Example 1b, 3-[1-(4'-Fluorobenzoyl)propyl-4-piperazine]-6-methoxy-1,2-benzisoxazole]",ED50,[1]; [8],5.28 mg/kg
"O=C(CCCN1CCN(c2noc3cc(O)ccc23)CC1)c1ccc(F)cc1 [Example 3, 3-[1-(4'-Fluorobenzoyl)propyl-4-piperazinyl]-6-hydroxy-1,2-benzisoxazole hydrobromide]",ED50,[1]; [8],0.4 mg/kg
same,APOMORPHINE STEREOTYPY INHIBITION (% inhibition),[2]; at 4.0 mg/kg,0%
same,IC50,"[5]; 3H-spiroperidol 0.4 nM, 37° C., 10 min, pH 7.7",240 nM
same,D2/5-HT2,[5]; ratio of D2 IC50 to 5-HT2 IC50,5.3
same,IC50,[6],45 nM
same,% Change in A10 region (dopamine neuron sampling),[3],-44.9%
same,% Change in A9 region (dopamine neuron sampling),[4],+1.4%
O=C(CCCN1CCC(O)(c2ccc(Cl)cc2)CC1)c1ccc(F)cc1 [Haloperidol],ED50,[1]; [8],0.11 mg/kg
same,APOMORPHINE STEREOTYPY INHIBITION (ED50),[2]; Litchfield and Wilcoxon,0.6 mg/kg
same,% Change in A10 region (dopamine neuron sampling),[3],-35%
same,depolarization inactivation of the DA neurons in the A9 area,[7],cause a depolarization inactivation of the DA neurons in the A9 area of the brain
same,% Change in A9 region (dopamine neuron sampling),[4],-30%
